Measured values published in PubChem BioAssay AID330 (DTP/NCI, 2004).
“And” between values parts separate entries of the source, which are not always exact repeats. Identical values can stand only once. Toxic doses and inconclusive results are not listed.

Test system: P388 leukemia ip, CD2F1 mice, survival T/C
Test: NCI In Vivo Anticancer Drug Screen. Data for tumor model P388 Leukemia (intraperitoneal) in CD2F1 (CDF1) mice
Details: endpoint: median survival time, higher = longer survival
Summary of the method: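 Mice carrying the transplanted tumor received test compound or vehicle. Survival was recorded in each group, and the value is the treated-group measurement divided by that of the vehicle-treated control group.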

[1] = dose: 50.0 mg/kg/injection, schedule: Q01DX005 (ip), vehicle: saline
[2] = dose: 60.0 mg/kg/injection, schedule: Q01DX005 (ip), vehicle: Klucel (hydroxypropylcellulose) (HPC)
[3] = dose: 120.0 mg/kg/injection, schedule: Q01DX005 (ip), vehicle: Klucel (hydroxypropylcellulose) (HPC)
[4] = dose: 240.0 mg/kg/injection, schedule: Q01DX005 (ip), vehicle: Klucel (hydroxypropylcellulose) (HPC)
[5] = dose: 50.0 mg/kg/injection, schedule: Q01DX009 (ip), vehicle: Klucel (hydroxypropylcellulose) (HPC)
[6] = dose: 100.0 mg/kg/injection, schedule: Q01DX009 (ip), vehicle: Klucel (hydroxypropylcellulose) (HPC)
[7] = dose: 200.0 mg/kg/injection, schedule: Q01DX009 (ip), vehicle: Klucel (hydroxypropylcellulose) (HPC)
[8] = dose: 50.0 mg/kg/injection, schedule: Q01DX005 (ip), vehicle: Klucel (hydroxypropylcellulose) (HPC)
[9] = dose: 100.0 mg/kg/injection, schedule: Q01DX009 (ip), vehicle: saline with Tween-80
[10] = dose: 100.0 mg/kg/injection, schedule: Q01DX001 (ip), vehicle: saline with Tween-80
[11] = dose: 200.0 mg/kg/injection, schedule: Q01DX001 (ip), vehicle: saline with Tween-80
[12] = dose: 400.0 mg/kg/injection, schedule: Q01DX001 (ip), vehicle: saline with Tween-80
[13] = dose: 12.5 mg/kg/injection, schedule: Q01DX009 (ip), vehicle: Klucel (hydroxypropylcellulose) (HPC)
[14] = dose: 25.0 mg/kg/injection, schedule: Q01DX009 (ip), vehicle: Klucel (hydroxypropylcellulose) (HPC)
[15] = dose: 12.5 mg/kg/injection, schedule: Q01DX009 (ip), vehicle: saline
[16] = dose: 25.0 mg/kg/injection, schedule: Q01DX009 (ip), vehicle: saline
[17] = dose: 50.0 mg/kg/injection, schedule: Q01DX009 (ip), vehicle: saline

Nc1nnc2nc(CC(=O)/C=C/c3ccccc3)c(CC(=O)/C=C/c3ccccc3)nn12
T/C [1]: 98 % of control | T/C (dose: 100.0 mg/kg/injection, schedule: Q01DX005 (ip), vehicle: saline): 97 % of control | T/C (dose: 200.0 mg/kg/injection, schedule: Q01DX005 (ip), vehicle: saline): 104 % of control

CCc1nc(N)nc(N)c1-c1ccc(NC)c(N)c1
T/C (dose: 100.0 mg/kg/injection, schedule: Q04DX002 (ip), vehicle: Klucel (hydroxypropylcellulose) (HPC)): 96 % of control | T/C (dose: 200.0 mg/kg/injection, schedule: Q04DX002 (ip), vehicle: Klucel (hydroxypropylcellulose) (HPC)): 105 % of control

COc1ccc(-c2c(C)oc(C)c2C(C)=O)cc1OC
T/C [2]: 98 % of control | T/C [3]: 102 % of control | T/C [4]: 101 % of control

Cc1onc(-c2ccccc2Cl)c1C1=N/C(=C/c2cc(Cl)cc(Cl)c2O)C(=O)O1
T/C [5]: 114 % of control | T/C [6]: 104 % of control | T/C [7]: 96 % of control

O=C1Nc2ccccc2/C1=N/n1c(-c2ccccc2)nc2ccccc2c1=O
T/C (dose: 12.5 mg/kg/injection, schedule: Q01DX005 (ip), vehicle: Klucel (hydroxypropylcellulose) (HPC)): 97 % of control | T/C (dose: 25.0 mg/kg/injection, schedule: Q01DX005 (ip), vehicle: Klucel (hydroxypropylcellulose) (HPC)): 97 % of control | T/C [8]: 87 % of control | T/C (dose: 100.0 mg/kg/injection, schedule: Q01DX005 (ip), vehicle: Klucel (hydroxypropylcellulose) (HPC)): 90 % of control | T/C (dose: 200.0 mg/kg/injection, schedule: Q01DX005 (ip), vehicle: Klucel (hydroxypropylcellulose) (HPC)): 89 % of control

Cn1cnc([N+](=O)[O-])c1N
T/C (dose: 12.5 mg/kg/injection, schedule: Q01DX009 (ip), vehicle: saline with Tween-80): 106 % of control | T/C (dose: 25.0 mg/kg/injection, schedule: Q01DX009 (ip), vehicle: saline with Tween-80): 119 % of control | T/C (dose: 50.0 mg/kg/injection, schedule: Q01DX009 (ip), vehicle: saline with Tween-80): 103 % of control | T/C [9]: 106 % of control

O=C1CCOc2cccc(c2)OCCC(=O)OCCCOC(=O)CCOc2cccc(c2)OCCC(=O)OCCCO1
T/C (dose: 12.5 mg/kg/injection, schedule: Q01DX005 (ip), vehicle: saline): 103 % of control | T/C (dose: 25.0 mg/kg/injection, schedule: Q01DX005 (ip), vehicle: saline): 107 % of control | T/C [8]: 96 % of control | T/C [1]: 98 % of control

CC1=C(C(=O)N2Cc3cc4ccccc4nc3C2)COC1=O
T/C (dose: 50.0 mg/kg/injection, schedule: Q01DX001 (ip), vehicle: saline with Tween-80): 99 % of control | T/C [10]: 90 % of control | T/C [11]: 95 % of control | T/C [12]: 90 % of control

CS(=O)(=O)c1nc2ccc(N3C(=O)c4ccccc4C3=O)cc2s1
T/C [13]: 108 % of control | T/C [14]: 107 % of control | T/C [5]: 110 % of control and 89 % of control | T/C [7]: 105 % of control

CCN(CC)CC.[CH-]1CCCCC1.[CH-]1CCCCC1.[CH3-].[Cl-].[Cl-].[Sn+4]
T/C (dose: 6.0 mg/kg/injection, schedule: Q01DX005 (ip), vehicle: saline): 107 % of control | T/C (dose: 12.0 mg/kg/injection, schedule: Q01DX005 (ip), vehicle: saline): 96 % of control

CCOC(=O)C1c2cccc(O)c2CCN1C(C)=O (stereo not drawn)
T/C [2]: 100 % of control | T/C [3]: 100 % of control | T/C [4]: 98 % of control

N#CC1CCCC[N-]1.[NH-]CC[N-]CC[NH-].[Pt+4] (stereo not drawn)
T/C (dose: 6.25 mg/kg/injection, schedule: Q01DX009 (ip), vehicle: saline): 93 % of control | T/C [15]: 97 % of control | T/C [16]: 100 % of control | T/C [17]: 97 % of control | T/C (dose: 100.0 mg/kg/injection, schedule: Q01DX009 (ip), vehicle: saline): 89 % of control

S=C1SCN(c2ccc(Br)cc2)CN1c1ccc2[nH]c(=S)sc2c1
T/C (dose: 6.25 mg/kg/injection, schedule: Q01DX009 (ip), vehicle: Klucel (hydroxypropylcellulose) (HPC)): 106 % of control | T/C [13]: 113 % of control | T/C [14]: 106 % of control

CCOC(=O)CC1(O)CSC(=C(C(=O)OCC)C(=O)OCC)N1c1ccccc1 (stereo not drawn)
T/C (dose: 50.0 mg/kg/injection, schedule: Q01DX005 (ip), vehicle: saline with Tween-80): 98 % of control | T/C (dose: 100.0 mg/kg/injection, schedule: Q01DX005 (ip), vehicle: saline with Tween-80): 91 % of control | T/C (dose: 200.0 mg/kg/injection, schedule: Q01DX005 (ip), vehicle: saline with Tween-80): 102 % of control

COc1cc2cc(c1Cl)N(C)C(=O)CC(OC(=O)C(C)N(C)C(=O)C(C)C)C1(C)OC1C(C)C1CC(OC)(NC(=O)O1)C(OC)/C=C/C=C(C)C2OC (stereo not drawn)
T/C (dose: 16.0 mg/kg/injection, schedule: Q01DX009 (ip), vehicle: saline): 98 % of control | T/C (dose: 32.0 mg/kg/injection, schedule: Q01DX009 (ip), vehicle: saline): 114 % of control | T/C (dose: 64.0 mg/kg/injection, schedule: Q01DX009 (ip), vehicle: saline): 100 % of control | T/C (dose: 128.0 mg/kg/injection, schedule: Q01DX009 (ip), vehicle: saline): 100 % of control | T/C (dose: 4.0 micrograms/kg/injection, schedule: Q01DX009 (ip), vehicle: saline): 99 % of control | T/C (dose: 8.0 micrograms/kg/injection, schedule: Q01DX009 (ip), vehicle: saline): 99 % of control | T/C (dose: 16.0 micrograms/kg/injection, schedule: Q01DX009 (ip), vehicle: saline): 103 % of control | T/C (dose: 32.0 micrograms/kg/injection, schedule: Q01DX009 (ip), vehicle: saline): 111 % of control

CN(Cc1ccccc1)C(=O)C(=O)c1c[nH]c2ccccc12
T/C [9]: 86 % of control | T/C (dose: 200.0 mg/kg/injection, schedule: Q01DX009 (ip), vehicle: saline with Tween-80): 90 % of control

CN(C)c1ccc(/C=N/Nc2nnc3c4ccccc4n(C)c3n2)cc1
T/C (dose: 12.5 mg/kg/injection, schedule: Q01DX005 (ip), vehicle: saline with Tween-80): 91 % of control | T/C (dose: 25.0 mg/kg/injection, schedule: Q01DX005 (ip), vehicle: saline with Tween-80): 97 % of control

CC(C)(C)OC(=O)NC(CCCCNC(=O)C(F)(F)F)C(=O)O (stereo not drawn)
T/C [5]: 108 % of control | T/C [6]: 104 % of control | T/C [7]: 102 % of control

CCOC(=O)CCc1[nH]c(=S)ncc1C(=O)OCC
T/C (dose: 7.5 mg/kg/injection, schedule: Q01DX009 (ip), vehicle: saline with Tween-80): 96 % of control | T/C (dose: 15.0 mg/kg/injection, schedule: Q01DX009 (ip), vehicle: saline with Tween-80): 101 % of control | T/C (dose: 30.0 mg/kg/injection, schedule: Q01DX009 (ip), vehicle: saline with Tween-80): 104 % of control

CC([NH-])CC(C)[NH-].O=C(O)C(=O)O.[Pt+2] (stereo not drawn)
T/C (dose: 12.5 mg/kg/injection, schedule: Q04DX002 (ip), vehicle: saline with Tween-80): 150 % of control | T/C (dose: 25.0 mg/kg/injection, schedule: Q04DX002 (ip), vehicle: saline with Tween-80): 174 % of control

O=C1CC(SC(=S)N2CCOCC2)C(=O)N1 (stereo not drawn)
T/C (dose: 100.0 mg/kg/injection, schedule: Q04DX002 (ip), vehicle: saline): 99 % of control and 103 % of control | T/C (dose: 200.0 mg/kg/injection, schedule: Q04DX002 (ip), vehicle: saline): 99 % of control and 97 % of control | T/C (dose: 400.0 mg/kg/injection, schedule: Q04DX002 (ip), vehicle: saline): 100 % of control and 109 % of control

COC(=O)Nc1c2ccccc2nc2c1c(C)c(C)c1ccccc12
T/C [10]: 88 % of control | T/C [11]: 88 % of control | T/C [12]: 95 % of control

CC(C)N(C(C)C)P1P(N(C(C)C)C(C)C)P(N(C(C)C)C(C)C)P1N(C(C)C)C(C)C (stereo not drawn)
T/C (dose: 60.0 mg/kg/injection, schedule: Q01DX005 (ip), vehicle: saline with Tween-80): 88 % of control | T/C (dose: 120.0 mg/kg/injection, schedule: Q01DX005 (ip), vehicle: saline with Tween-80): 86 % of control | T/C (dose: 240.0 mg/kg/injection, schedule: Q01DX005 (ip), vehicle: saline with Tween-80): 89 % of control

C[CH2][Sn]([c]1ccccc1)[c]1ccccc1
T/C [15]: 109 % of control | T/C [16]: 114 % of control | T/C (dose: 25.0 mg/kg/injection, schedule: Q04DX003 (ip), vehicle: saline): 108 % of control | T/C [17]: 114 % of control and 116 % of control | T/C (dose: 50.0 mg/kg/injection, schedule: Q04DX003 (ip), vehicle: saline): 115 % of control | T/C (dose: 100.0 mg/kg/injection, schedule: Q04DX003 (ip), vehicle: saline): 109 % of control
